Measured values as given in US7745401B2, “Antifungal peptides and methods of use thereof” (The Board of Regents of the University of Oklahoma, priority 2005, dated 2010).
Entries after “also recorded” stand apart in the source; their conditions may differ. Where no end group is shown, it is not given here.

B1: PF-4: platelet factor-4, isolated from human platelets (protein, UniProt P02776 32-101, looked up)
Platelet factor 4: EAEEDGDLQCLCVKTTSQVRPRHITSLEVIKAGPHCPTAQLIATLKNGRKICLDLQAPLYKKIIKKLLES
B2: RANTES: Regulated upon Activation Normal T cell Expressed and Secreted protein, isolated from human platelets (protein, UniProt P13501 24-91, looked up)
C-C motif chemokine 5: SPYSSDTTPCCFAYIARPLPRAHIKEYFYTSGKCSNPAVVFVTRKNRQVCANPEKKWVREYINSLEMS
B3: CAP37: cationic antimicrobial protein of Mr 37 kDa of the human neutrophil (protein)
chain: IVGGRKARPRQFPFLASIQNQGRHFCGGALIHARFVMTAASCFQSQNPGVSTVVLGAYDLRRRERQSRQTFSISSMSENGYDPQQNLNDLMLLQLDREANLTSSVTILPLPLQNATVEAGTRCQVAGWGSQRSGGRLSRFPRFVNVTVTPEDQCRPNNVCTGVLTRRGGICNGDGGTPLVCEGLAHGVASFSLGPCGRGPDFFTRVALFRDWIDGVLNNPGP

Columns and labels:
Candida albicans = assay type: cell-based; details: for activity against C. albicans: in vitro killing efficacy; for activity against fluconazole resistant isolates: isolates A-5 and A-20; for activity against fluconazole sensitive isolates: isolates A-155, A-22 and A-111, 400 μg/ml; for killing of blood isolate of Candida: blood isolate of C. albicans, 400 μg/ml (150 μM); for peptide concentration required for activity: fluconazole resistant isolate A-46; for activity at the lower concentration: fluconazole resistant isolates A-5 and A-20, 200 μg/ml or 75 μM; for fungicidal or fungistatic effect: isolates A-5, A-20, A-46 and A-155, viable colony counts versus starting inoculum
Procedure: (§1) Isolates used in this study included Candida albicans (ATCC 28367), three fluconazole sensitive mucosal isolates of C. albicans, designated A-22, A-111 and A-155, three fluconazole resistant mucosal isolates of C. albicans designated A-46, A-5, and A-20, and a blood isolate of C. albicans designated WDO. Isolates were stored frozen at −70° C. and streaked onto Sabouraud Dextrose Agar (Sigma, St. Louis, Mo.) plates and maintained on plates at 4° C., with subculturing onto new plates approximately every 10 days for the duration of the studies. Fluconazole resistance was evaluated. Three clinical isolates of C. glabrata, two clinical isolates of C. dubliniensis, and single isolate each of C. krusei, C. guilliermondii, C. parapsilosis, C. pseudotropicalis and C. tropicalis and two isolates of Saccharomyces cerevisiae were also used in this study and were maintained on Sabouraud Dextrose agar plates at 4° C. A single yeast colony was cultured overnight at 33° C. in 1% phytone peptone broth (Becton Dickinson, Sparks Md.) with 0.1% D-glucose (Sigma).
Stock solutions of all peptides were made up at concentrations of 1 mg/ml in sterile endotoxin-free water for irrigation (Baxter, Deerfield, Ill.). Subsequent dilutions were all made in tryptone saline pH 5.5 (Shafer et al., Infect Immun, 1984). An aliquot (100 μl) of an overnight culture of a single colony grown at 33° C. in 1% phytone peptone broth with 0.1% glucose was subcultured in 5 ml of 1% phytone peptone broth with 0.1% glucose and incubated in a shaking water bath (80 oscillations per min, Precision, Winchester, Va.) for 90 min at 33° C. to yield a logarithmic culture. […] The optical density was read and the culture adjusted to 500 blastospores/100 μl in tryptone saline pH 5.5 (Shafer et al., Infect Immun, 1984). To 100 μl of the organism suspension in a 96 well sterile polystyrene microtiter plate (Becton Dickinson, Franklin Lakes, N.J.) was added 100 μl of the peptide (final concentrations 400 μg/ml and 200 μg/ml) or 100 μl of tryptone saline. The latter served as a control. The microtiter plate was incubated at 37° C. for 4 hr and 100 μl of the contents from each well was plated on Sabouraud Dextrose agar plates and incubated at 37° C. overnight. The colony forming units (cfu) were counted and the fungicidal activity was expressed as percent killed and calculated according to the following equation: [(control cfu−test cfu)/control cfu]×100=% killed. Control cfu is indicated by the number of colonies present after […] of incubation in tryptone saline alone in the absence of peptide. Test cfu is determined by counting the number of colonies present after incubation in tryptone saline containing the peptide. Each experimental point was performed in triplicate.
C. albicans (ATCC 28367) was used to standardize the in vitro killing assay. We explored the optimal growth conditions (temperature and time, 25° C. for 5 h and 33° C. for 90 min), numbers of blastospores per well (200, 400, 500, 600, 800, and 1000 cfu), range of peptide concentrations (750, 500, 400, 200 and 100 μg/ml) and the contact time between peptide and Candida (1, 2 and 4 hr) for killing to occur. […] The 90 minute incubation was more convenient technically and was therefore employed routinely. The optimum numbers of cfu per well was determined to be 500 and an incubation time of 4 hr at 37° C. between Candida and peptide was required to obtain optimal killing.

[1] = tested on: C. albicans (fluconazole sensitive isolate); assay: FUN-1 vital dye yeast viability, confocal microscopy, C. albicans; assay type: cell-based, Candida albicans; details: 400 μg/ml, 37° C. for 2 hr
Procedure: (§2) Yeast viability was also assessed using the FUN-1 Live/Dead Yeast Viability Kit (Molecular Probes, Eugene, Oreg.). The methodology employed was essentially according to the protocol provided by the vendor for use with fluorescent microscopy. Briefly, yeast cultures were prepared exactly as stated above. C. glabrata, C. pseudotropicalis, C. albicans (fluconazole sensitive isolate) and S. cerevisiae (5×10^5 cfu in 100 μl of tryptone saline) were incubated (37° C. for 2 hr) in the absence or presence of peptide (CAP37(20-44)nat and CAP37(20-44)ser26/42) at a final concentration of 400 μg/ml. At the end of the incubation period, the samples were transferred to microcentrifuge tubes and centrifuged (10,000×g for 3 min at room temperature). The supernatant was removed and the pellet resuspended in 25 μl of GH solution (2% D-glucose containing 10 mM Na-HEPES, pH 7.2) as described in the technical data sheet provided by the vendor. A working solution of the FUN-1 reagent (100 μl of 10 μM) was prepared from 10 mM stock solution and 25 μl (final concentration 5 μM) added to the yeast and incubated at room temperature for 30 min. A sample (10 μl) was placed on a microscope slide and staining observed under a Leica TCS NT confocal microscope using Ar-488 and Kr-568 Lasers and 63x Plan APO 1.2 NA water immersion objective. Images were scanned and analyzed using the Leica TCS software.

C. glabrata [2] = assay: FUN-1 vital dye yeast viability, confocal microscopy, C. glabrata; assay type: cell-based; details: 400 μg/ml, 37° C. for 2 hr
Procedure: as §2

[3] = tested on: Salmonella typhimurium, Escherichia coli, and Pseudomonas aeruginosa; details: Gram negative organisms; cited from earlier work
C. parapsilosis = assay: In vitro candidacidal assay, C. parapsilosis; assay type: cell-based; details: 100 μg/ml (37.5 μM)
Procedure: (§3) Isolates used in this study included Candida albicans (ATCC 28367), three fluconazole sensitive mucosal isolates of C. albicans, designated A-22, A-111 and A-155, three fluconazole resistant mucosal isolates of C. albicans designated A-46, A-5, and A-20, and a blood isolate of C. albicans designated WDO. Isolates were stored frozen at −70° C. and streaked onto Sabouraud Dextrose Agar (Sigma, St. Louis, Mo.) plates and maintained on plates at 4° C., with subculturing onto new plates approximately every 10 days for the duration of the studies. Fluconazole resistance was evaluated. […]
(§4) Stock solutions of all peptides were made up at concentrations of 1 mg/ml in sterile endotoxin-free water for irrigation (Baxter, Deerfield, Ill.). […] The optical density was read and the culture adjusted to 500 blastospores/100 μl in tryptone saline pH 5.5 (Shafer et al., Infect Immun, 1984). […] The colony forming units (cfu) were counted and the fungicidal activity was expressed as percent killed and calculated according to the following equation: [(control cfu−test cfu)/control cfu]×100=% killed. […] Test cfu is determined by counting the number of colonies present after incubation in tryptone saline containing the peptide. […]

C. guilliermondii = assay: In vitro candidacidal assay, C. guilliermondii; assay type: cell-based; details: 100 μg/ml (37.5 μM)
Procedure: as §3, §4

S. cerevisiae = assay: FUN-1 vital dye yeast viability, confocal microscopy, S. cerevisiae; assay type: cell-based, Saccharomyces cerevisiae; details: 400 μg/ml, 37° C. for 2 hr
Procedure: as §2

C. pseudotropicalis = assay: In vitro candidacidal assay, C. pseudotropicalis; assay type: cell-based; details: 400 μg/ml (150 μM)
Procedure: as §3, §4

C. tropicalis = assay: In vitro candidacidal assay, C. tropicalis; assay type: cell-based; details: 400 μg/ml (150 μM)
Procedure: as §1
as §4, with “Ill.). Subsequent dilutions were all made in tryptone saline pH 5.5 (Shafer et al., Infect Immun, 1984).” for “Ill.).”

C. glabrata [4] = assay: In vitro candidacidal assay, C. glabrata; assay type: cell-based; details: one isolate of three; 400 μg/ml (150 μM)
Procedure: as §1
as §4, with “Ill.). Subsequent dilutions were all made in tryptone saline pH 5.5 (Shafer et al., Infect Immun, 1984).” for “Ill.).”

C. dubliniensis = assay: In vitro candidacidal assay, C. dubliniensis; assay type: cell-based; details: two isolates; 400 μg/ml (150 μM)
Procedure: as §1
as §4, with “Ill.). Subsequent dilutions were all made in tryptone saline pH 5.5 (Shafer et al., Infect Immun, 1984).” for “Ill.).”

[5] = tested on: hyphal forms of Candida albicans; assay: In vitro candidacidal assay on hyphal forms of C. albicans; assay type: cell-based; details: clinical isolates; 400 and 200 μg/ml
Procedure: To induce hyphal formation a single colony of C. albicans isolates A-5, A-20, A-22, A-46, A-11 and A-155 from a Sabouraud Dextrose agar plate was transferred to 1% phytone peptone broth with 0.1 glucose and grown overnight at 33° C. An aliquot (500 μl) of the overnight culture was subcultured in 5 ml of RPMI-1640 (Celigro Mediatech Inc, Herndon, Va.)) with 10% fetal calf serum (Invitrogen, Grand Island, N.Y.) for 90 min at 37° C. Hyphal formation was determined under phase microscopy.
as §4, with “Ill.). Subsequent dilutions were all made in tryptone saline pH 5.5 (Shafer et al., Infect Immun, 1984).” for “Ill.).”

Candida = details: peptides isolated from human platelets; cited from earlier work

Molecule | activity against C. albicans (Candida albicans) | activity against fluconazole resistant isolates (Candida albicans) | activity against fluconazole sensitive isolates (Candida albicans) | bactericidal activity [3] | killing (Candida albicans) [%] | killing of blood isolate of Candida (Candida albicans) | peptide concentration required for activity (Candida albicans) [µg/mL] | activity at the lower concentration (Candida albicans) | fungicidal or fungistatic effect (Candida albicans) | activity against C. tropicalis (C. tropicalis) | activity against C. glabrata (C. glabrata [4]) | activity against C. dubliniensis (C. dubliniensis) | candidacidal activity (Candida) | also measured
NQGRHFSGGALIHARFVMTAASSFQ (NQGRHFSGGALIHARFVMTAASSFQ; listed as Homo sapiens) [CAP37(20-44)ser26/42, cysteines at positions 26 and 42 replaced by serine] | significantly abrogated activity | moderately active | lack of activity | inactive compound |  |  |  |  |  |  |  |  |  | blastoconidia alive [1]: 30%; cell viability (C. glabrata [2]): virtually all cells were viable; activity against C. parapsilosis (C. parapsilosis): some activity; activity against C. guilliermondii (C. guilliermondii): some activity; cell viability (S. cerevisiae): virtually all cells were viable; activity against C. pseudotropicalis (C. pseudotropicalis): some activity
NQGRHFCGGALIHARFVMTAASSFQ [CAP37(20-44)ser42, NQGRHFCGGALIHARFVMTAASSFQ] | significant activity | highly active | strongly active |  | > 75 | killed | 400 | significant activity | fungicidal rather than fungistatic | killed | effective against both isolates of C. dubliniensis and one isolate of C. glabrata, although to a lesser extent | more effective against C. dubliniensis than CAP37(20-44)nat; also recorded: effective against both isolates of C. dubliniensis and one isolate of C. glabrata, although to a lesser extent |  | activity on hyphal forms of C. albicans [5]: greater activity
NQGRHFSGGALIHARFVMTAASCFQ [CAP37(20-44)ser26, NQGRHFSGGALIHARFVMTAASCFQ] | significant activity | highly active | strongly active |  | > 75 | killed | 400 | significant activity | fungicidal rather than fungistatic | killed | effective against both isolates of C. dubliniensis and one isolate of C. glabrata, although to a lesser extent | effective against both isolates of C. dubliniensis and one isolate of C. glabrata, although to a lesser extent |  | 
B1 |  |  |  |  |  |  |  |  |  |  |  |  | exhibited candidacidal activity | 
B2 |  |  |  |  |  |  |  |  |  |  |  |  | exhibited candidacidal activity | 
B3 |  |  |  | strong bactericidal activity |  |  |  |  |  |  |  |  |  | 
